PubChem BioAssay AID2060504 (Molecular Pharmacology Branch, DTP, NCI, 2025)

System: 636577-100-R-J1-PDC complex spheroid viability
Experiment: Anticancer human tumor 636577-100-R-J1-PDC patient-derived endometrial adenocarcinoma cell line growth inhibition [GQUAD]
Settings: for IC50: curve of first compound; for viability, T/C: stronger effect = lower value; active = viability on the fitted dose curve at most 10% of control; inactive = the rest
Source text: DNA G-quadruplex Stabilizer Agents in Combinations in Complex Spheroids
A high-throughput screen of multi-cell type tumor spheroids was designed to identify active combinations of DNA G-quadruplex stabilizer agents and targeted small molecules. Complex spheroids include a stromal component modeled by human endothelial cells (HUVEC) and fibroblasts modeled by human mesenchymal stem cells (MSCs). The concentration ranges selected for each drug and investigational agent were based upon clinically achievable concentrations if the clinical Cmax of the agent was known.
Compounds. The drugs and investigational agents: pidnarulex (CX-5461; NSC782164), APTO-253 (NSC789042), BRACO-19 (NSC847499), peposertib (NSC802822), ceralasertib (NSC780249), elimusertib (NSC800525), camonsertib (NSC841442), AZD-1390 (NSC803789), olaparib (NSC753686), talazoparib (NSC767125), ART-558 (NSC835418), sotorasib (NSC818433), MRTX-1133 (NSC836407), SN-38 (NSC673596), topotecan (NSC609699), etoposide (NSC141540), doxorubicin (NSC123127), gemcitabine (NSC613327), 5-fluorouracil (NSC19893), paclitaxel (NSC125973), vemurafenib (NSC761431), panobinostat (NSC761190), R-306465 (JNJ-16241199; NSC773264), adavosertib (NSC754352), TP-3654 (NSC805149), carboplatin (NSC241240), KSQ-4279 (NSC840948), and staurosporine (NSC755774) were obtained from the National Cancer Institute (NCI) Developmental Therapeutics Program Chemical Repository (34). The FDA-approved anticancer drug set is available from the NCI Developmental Therapeutics Program. […] The stock solutions were prepared in dimethyl sulfoxide (DMSO, Sigma-Aldrich, St. Louis, MO, cat. D2650) at 800-fold the tested concentration and stored at -70 degrees C prior to their use. All drugs and investigational agents were tested over a range starting from a high concentration at or near the clinical Cmax and decreasing in half-log increments. If the clinical Cmax for an agent had not been determined, the highest concentration tested was 10 microM.
2.3 Cell Culture. All cells were maintained in an incubator at 37 degrees C and 5% CO2 with 95% humidity. The PDC lines were cultured according to standard operating procedures established by the NCI PDMR. All PDCs were thawed and cultured in Matrigel-coated flasks prepared with a working solution of 1X Ham's F-12 nutrient mix, without supplementation (Invitrogen, cat. 11765054), 100 U/mL penicillin-streptomycin (Invitrogen, cat. 15140122), and 2.5% Matrigel (Corning Inc., cat. 354248) for the first three passages. The 857933-349-R-J2-PDC line was cultured in 6C/Colon 1B media, which includes advanced DMEM/F-12 (Thermo Fisher Scientific, cat. 12634028), 10 mM HEPES (Thermo Fisher Scientific, cat. 15630080), 1X GlutaMAX supplement (Thermo Fisher Scientific, cat. 35050061), 0.1 mg/mL primocin (InvivoGen, cat. ant-pm-2), 10% defined fetal bovine serum, heat inactivated (HyClone Laboratories Inc., cat. SH30070.03HI), 50% L-WRN conditioned media (ATCC, cat. CRL-3276), 1.25 mM N-Acetyl-L-cysteine (Sigma-Aldrich, cat. A9165), 10 mM nicotinamide (Sigma-Aldrich, cat. N0636), 1X B-27 supplement (Thermo Fisher Scientific, cat. 17504044), 1X N-2 supplement (Thermo Fisher Scientific, cat. 17502048), 10 microM Y-27632 dihydrochloride (Tocris Bioscience, cat. 1254), and 50 ng/mL human EGF recombinant protein (Thermo Fisher Scientific, cat. PHG0311). The 485176-168-R4-J1-PDC line was cultured in Panc media, which includes all 6C/Colon 1B media components plus 100 ng/mL human FGF-10 (Thermo Fisher Scientific, cat. 100-26), 500 nM SB-431542 (Selleckchem, cat. S1067), and gastrin (Tocris, cat. 3006).
[…]
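Also: viability read after seven days of drug exposure.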
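For viability, T/C in this document: luminescence signal used as a proxy for viable cells; 100% = DMSO vehicle control wells.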

O=C(c1cc(Cc2n[nH]c(=O)c3ccccc23)ccc1F)N1CCN(C(=O)C2CC2)CC1 + Cc1[nH]c2ccc(F)cc2c1-c1nc2c3cccnc3c3ncccc3c2[nH]1
inactive: viability, T/C (second compound 0.0316 µM, first compound 0.0316 µM) 103% | viability, T/C (second compound 0.0316 µM, first compound 0.1 µM) 79.4% | viability, T/C (second compound 0.0316 µM, first compound 0.316 µM) 46.5% | viability, T/C (second compound 0.0316 µM, first compound 1 µM) 58.6% | viability, T/C (second compound 0.0316 µM, first compound 3.16 µM) 50.4% | viability, T/C (second compound 0.0316 µM, first compound 10 µM) 40.6% | viability, T/C (second compound 0.1 µM, first compound 0.0316 µM) 100% | viability, T/C (second compound 0.1 µM, first compound 0.1 µM) 96.5% | viability, T/C (second compound 0.1 µM, first compound 0.316 µM) 65.2% | viability, T/C (second compound 0.1 µM, first compound 1 µM) 43.7% | viability, T/C (second compound 0.1 µM, first compound 3.16 µM) 67.6% | viability, T/C (second compound 0.1 µM, first compound 10 µM) 36.9% | viability, T/C (second compound 0.316 µM, first compound 0.0316 µM) 90.1% | viability, T/C (second compound 0.316 µM, first compound 0.1 µM) 75.3% | viability, T/C (second compound 0.316 µM, first compound 0.316 µM) 66.7% | viability, T/C (second compound 0.316 µM, first compound 1 µM) 61.6% | viability, T/C (second compound 0.316 µM, first compound 3.16 µM) 53.7% | viability, T/C (second compound 0.316 µM, first compound 10 µM) 32.4% | viability, T/C (second compound 1 µM, first compound 0.0316 µM) 60.6% | viability, T/C (second compound 1 µM, first compound 0.1 µM) 65.7% | viability, T/C (second compound 1 µM, first compound 0.316 µM) 65.6% | viability, T/C (second compound 1 µM, first compound 1 µM) 57.9% | viability, T/C (second compound 1 µM, first compound 3.16 µM) 63.4% | viability, T/C (second compound 1 µM, first compound 10 µM) 37% | viability, T/C (second compound 3.16 µM, first compound 0.0316 µM) 39.4% | viability, T/C (second compound 3.16 µM, first compound 0.1 µM) 40.7% | viability, T/C (second compound 3.16 µM, first compound 0.316 µM) 43.5% | viability, T/C (second compound 3.16 µM, first compound 1 µM) 43.3% | viability, T/C (second compound 3.16 µM, first compound 3.16 µM) 31.6% | viability, T/C (second compound 3.16 µM, first compound 10 µM) 29.9% | viability, T/C (second compound 10 µM, first compound 0.0316 µM) 34.6% | viability, T/C (second compound 10 µM, first compound 0.1 µM) 64.9% | viability, T/C (second compound 10 µM, first compound 0.316 µM) 57.3% | viability, T/C (second compound 10 µM, first compound 1 µM) 41.9% | viability, T/C (second compound 10 µM, first compound 3.16 µM) 54% | viability, T/C (second compound 10 µM, first compound 10 µM) 33%
3.28 µM: IC50 (second compound 10 µM)
3.06 µM: IC50 (second compound 0.1 µM)
0.305 µM: IC50 (second compound 0.0316 µM)
< 0.0316 µM: IC50 (second compound 3.16 µM)
5.55 µM: IC50 (second compound 1 µM)
2.69 µM: IC50 (second compound 0.316 µM)
